Assays:
[1] = test system: p21 promoter (p21-luc) in H1299 cells; experiment: p21 promoter luciferase assay using stably transfected p21-luc in H1299 cells; assay type: cell-based; details: Homo sapiens, NCI-H1299
Summary of the method: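 H1299 cells stably carrying a p21 promoter–luciferase reporter, grown in RPMI 1640/10% FBS under Geneticin selection, seeded about 5000 cells/well and incubated overnight at 37 C. Compound exposure lasted one day. Cells were then lysed and luciferase luminescence measured.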

HDAC-1 = target: T1, HDAC-1 (Homo sapiens, UniProt Q13547); experiment: Deacetylase fluorescence assay (HDAC-1); assay type: biochemical; details: read-out: HDAC-1 IC50
T1 construct: made in house
T1 sequence (Q13547 whole entry): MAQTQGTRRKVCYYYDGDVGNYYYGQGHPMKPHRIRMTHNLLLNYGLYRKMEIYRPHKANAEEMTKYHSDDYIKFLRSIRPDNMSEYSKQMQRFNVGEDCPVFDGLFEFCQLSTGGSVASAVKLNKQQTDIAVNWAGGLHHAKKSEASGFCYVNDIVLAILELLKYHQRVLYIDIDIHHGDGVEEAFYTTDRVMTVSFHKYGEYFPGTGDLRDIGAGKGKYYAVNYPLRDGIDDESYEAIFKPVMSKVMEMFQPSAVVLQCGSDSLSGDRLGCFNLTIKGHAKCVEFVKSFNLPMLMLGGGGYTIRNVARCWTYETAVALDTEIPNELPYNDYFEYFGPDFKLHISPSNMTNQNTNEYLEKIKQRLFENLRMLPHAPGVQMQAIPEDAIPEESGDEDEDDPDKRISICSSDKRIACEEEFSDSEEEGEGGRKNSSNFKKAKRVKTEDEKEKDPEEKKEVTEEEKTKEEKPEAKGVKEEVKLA
Summary of the method: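 Flag-tagged HDAC-1 immunopurified from overexpressing 293-derived cells was assayed in 25 mM Tris-HCl pH 8.0, 137 mM NaCl, 2.7 mM KCl, 1 mM MgCl2 with Fluor de Lys substrate (50 uM) and inhibitor. Deacetylation was read by fluorescence after trypsin developer containing TSA.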

| Structure (SMILES) | AC50 [1] [nM] | IC50 (HDAC-1) [nM] |
| --- | --- | --- |
| O=C(/C=C/c1ccc2c(c1)CN(C(=O)c1cccc(C(F)(F)F)c1)C2)NO [Example 16, (E)-N-Hydroxy-3-[2-(3-trifluoromethyl-benzoyl)-2,3-dihydro-1H-isoindol-5-yl]-acrylamide] | > 1000 | 100 to 1000 |
| COc1cccc(C(=O)N2CCc3ccc(CCC(=O)NO)cc3C2)c1 [Example 60, N-Hydroxy-3-[2-(3-methoxy-benzoyl)-1,2,3,4-tetrahydro-isoquinolin-7-yl]-propionamide] | > 1000 | 100 to 1000 |
| O=C(/C=C/c1ccc2c(c1)CCN(S(=O)(=O)c1ccccc1)C2)NO [Example 81, (E)-3-(2-Benzenesulfonyl-1,2,3,4-tetrahydro-isoquinolin-6-yl)-N-hydroxy-acrylamide] | > 1000 | 100 to 1000 |
| Cc1nn(C)c(C)c1CN1CCc2ccc(/C=C/C(=O)NO)cc2C1 [Example 52, (E)-N-Hydroxy-3-[2-(1,3,5-trimethyl-1H-pyrazol-4-ylmethyl)-1,2,3,4-tetrahydro-isoquinolin-7-yl]-acrylamide] | > 1000 | 100 to 1000 |
| O=C(CCc1ccc2c(c1)CN(CCC1CCCCC1)CC2)NO [Example 31] | > 1000 | 100 to 1000 |
| O=C(/C=C/c1ccc2c(c1)CN(S(=O)(=O)c1ccncc1)C2)NO [Example 6, (E)-N-Hydroxy-3-[2-(pyridine-4-sulfonyl)-2,3-dihydro-1H-isoindol-5-yl]-acrylamide] | > 1000 | 100 to 1000 |
| CC(C)(C)OC(=O)N1Cc2ccc(/C=C/C(=O)NO)cc2C1 [Example 2, 5-((E)-2-Hydroxycarbamoyl-vinyl)-1,3-dihydro-isoindole-2-carboxylic acid tert-butyl ester] | > 1000 | 100 to 1000 |
| Cc1noc(-c2ccccc2)c1CCN1CCc2cc(/C=C/C(=O)NO)ccc2C1 [Example 78, (E)-N-Hydroxy-3-{2-[2-(3-methyl-5-phenyl-isoxazol-4-yl)-ethyl]-1,2,3,4-tetrahydro-isoquinolin-6-yl}-acrylamide] | > 1000 | < 100 |
| Cc1c(CCN2CCc3cc(/C=C/C(=O)NO)ccc3C2)cnn1-c1ccccc1 [Example 85, (E)-N-Hydroxy-3-{2-[2-(5-methyl-1-phenyl-1H-pyrazol-4-yl)-ethyl]-1,2,3,4-tetrahydro-isoquinolin-6-yl}-acrylamide] | > 1000 | < 100 |
| Cc1[nH]c2ccccc2c1CCN1CCc2ccc(CCC(=O)NO)cc2C1 [Example 37, N-Hydroxy-3-{2-[2-(2-methyl-1H-indol-3-yl)-ethyl]-1,2,3,4-tetrahydro-isoquinolin-7-yl}-propionamide] | > 1000 | > 1000 |
| CCc1nn2ccccc2c1CCN1CCc2cc(CCC(=O)NO)ccc2C1 [Example 73, 3-{2-[2-(2-Ethyl-pyrazolo[1,5-a]pyridin-3-yl)-ethyl]-1,2,3,4-tetrahydro-isoquinolin-6-yl}-N-hydroxy-propionamide] | > 1000 | 100 to 1000 |
| O=C(/C=C/c1ccc2c(c1)CN(C(=O)Cc1ccc(Cl)c(Cl)c1)CC2)NO [Example 67, (E)-3-{2-[2-(3,4-Dichloro-phenyl)-acetyl]-1,2,3,4-tetrahydro-isoquinolin-7-yl}-N-hydroxy-acrylamide] | > 1000 | < 100 |
| Cc1nn2ccccc2c1CCN1CCc2ccc(/C=C/C(=O)NO)cc2C1 [Example 40, (E)-N-Hydroxy-3-{2-[2-(2-methyl-pyrazolo[1,5-a]pyridin-3-yl)-ethyl]-1,2,3,4-tetrahydro-isoquinolin-7-yl}-acrylamide] | > 1000 | < 100 |
| O=C(/C=C/c1ccc2c(c1)CN(CCc1c[nH]c3ccccc13)CC2)NO [Example 36, (E)-N-Hydroxy-3-{2-[2-(1H-indol-3-yl)-ethyl]-1,2,3,4-tetrahydro-isoquinolin-7-yl}-acrylamide] | > 1000 | 100 to 1000 |
| O=C(/C=C/c1ccc2c(c1)CN(C(=O)C1CC1)C2)NO [Example 23, (E)-3-(2-Cyclopropanecarbonyl-2,3-dihydro-1H-isoindol-5-yl)-N-hydroxy-acrylamide] | > 1000 | 100 to 1000 |

Source: patent US20100022514A1, “Heterocycle Compounds and Methods of Use Thereof” (NORVARTIS AG, priority 2006, published 2010)
